In patent US9926319B2, “Pyridyl piperidines” (MERCK PATENT GMBH, priority 2014, dated 2018):

Columns and labels:
Wnt pathway = assay: Cellular assay for Wnt pathway activity (luciferase reporter cell based assay); settings: 24 h, HEK293 luciferase reporter cell line (ER-DSH, TCF dependent promoter), induced with estrogen (1 μM), read-out: 7df3 IC50
[1] = CLint (intrinsic clearance) assay, microsomal incubation; format: in vitro ADME, Human; settings: human, liver microsomes, pH 7.4, human liver microsomes 0.5 mg/mL protein, NADPH, 37° C., up to 30 min
Outline: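 Test compound at 0.8 μM was incubated at 37 °C with liver microsomes at 0.5 mg/mL protein in 0.1 M potassium phosphate pH 7.4 with 1 mM MgCl2, NADPH-started, with no-cofactor controls. Acetonitrile quench at 0, 5, 10, 20 and 30 min, then LC-MS/MS peak-area decline. CLint (μL/min/mg protein) = k·1000/protein concentration.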

Row | IC50 (Wnt pathway) | microsomal CLint at 0.8 μM [1] | Compound
1 | 6.2 nM | 83 µL/min/mg | Cn1cc(-c2ccc(-c3cncc(Cl)c3N3CCC4(CCNC4=O)CC3)cc2)cn1 [Example 89, 8-{3-Chloro-5-[4-(1-methyl-1H-pyrazol-4-yl)-phenyl]-pyridin-4-yl}-2,8-diaza-spiro[4.5]decan-1-one]
2 | 8.8 nM | 66 µL/min/mg | O=C1CC2(CCN(c3c(Cl)cncc3-c3ccc(N4CCOCC4)cc3)CC2)C(=O)N1 [Example 90, 8-[3-Chloro-5-(4-morpholin-4-yl-phenyl)-pyridin-4-yl]-2,8-diaza-spiro[4.5]decane-1,3-dione]
3 | 14 nM | 33 µL/min/mg | Cn1cc2cc(-c3cncc(Cl)c3N3CCC4(CCNC4=O)CC3)ccc2n1 [Example 92, 8-[3-Chloro-5-(2-methyl-2H-indazol-5-yl)-pyridin-4-yl]-2,8-diaza-spiro[4.5]decan-1-one]
4 | 34 nM | 48 µL/min/mg | O=C1CCc2cc(-c3cncc(Cl)c3N3CCC4(CCNC4=O)CC3)cnc2N1 [Example 93, 6-[5-Chloro-4-(1-oxo-2,8-diaza-spiro[4.5]dec-8-yl)-pyridin-3-yl]-3,4-dihydro-1H-[1,8]naphthyridin-2-one]
5 | 28 nM | < 10 µL/min/mg | CC(C)n1cc2cc(-c3cncc(Cl)c3N3CCC4(CC3)CNC(=O)O4)ccc2n1 [Example 94, 8-[3-Chloro-5-(2-isopropyl-2H-indazol-5-yl)-pyridin-4-yl]-1-oxa-3,8-diaza-spiro[4.5]decan-2-one]
6 | 4.5 nM | < 10 µL/min/mg | CCn1cc2cc(-c3cncc(Cl)c3N3CCC4(CC3)CNC(=O)O4)ccc2n1 [Example 95, 8-[3-Chloro-5-(2-ethyl-2H-indazol-5-yl)-pyridin-4-yl]-1-oxa-3,8-diaza-spiro[4.5]decan-2-one]
7 | 4.3 nM | 35 µL/min/mg | C[C@@H]1NC(=O)OC12CCN(c1c(Cl)cncc1-c1ccc3c(c1)CS(=O)(=O)N3C)CC2 [Example 98, (S)-8-[3-Chloro-5-(1-methyl-2,2-dioxo-2,3-dihydro-1H-2l6-benzo[c]isothiazol-5-yl)-pyridin-4-yl]-4-methyl-1-oxa-3,8-diaza-spiro[4.5]decan-2-one]
8 | 5.2 nM | 39 µL/min/mg | C[C@H]1NC(=O)OC12CCN(c1c(Cl)cncc1-c1ccc3c(c1)CS(=O)(=O)N3C)CC2 [Example 99, (R)-8-[3-Chloro-5-(1-methyl-2,2-dioxo-2,3-dihydro-1H-2l6-benzo[c]isothiazol-5-yl)-pyridin-4-yl]-4-methyl-1-oxa-3,8-diaza-spiro[4.5]decan-2-one]
9 | 37 nM | 31 µL/min/mg | C[C@H]1NC(=O)OC12CCN(c1c(Cl)cncc1-c1ccc(-c3cnn(C)c3)cc1)CC2 [Example 100, (R)-8-{3-Chloro-5-[4-(1-methyl-1H-pyrazol-4-yl)-phenyl]-pyridin-4-yl}-4-methyl-1-oxa-3,8-diaza-spiro[4.5]decan-2-one]
